Assays:
[1] = xn = mol fraction of the nth substance listed; conditions: 101 kPa, Liquid; for viscosity: Falling or rolling sphere viscometry
[2] = 101.33 kPa, Liquid; for viscosity: Falling or rolling sphere viscometry

OCCOCCO [diethylene glycol] + OCCO
mass density [kg/m3], [1]
Conditions | 298.15 K | 318.55 K | 322.34 K | 333.45 K | 353.83 K | 367.15 K | 392.87 K | 436.08 K | 462.75 K
Buoyancy - hydrostatic balance, x2 = 0.5 | 1112.21 | – | 1097.38 | – | 1075.19 | – | 1043.14 | 1001.82 | 973.24
Pycnometric method, x1 = 0.5 | 1112.21 | 1099.83 | – | 1089.92 | – | 1064.82 | – | – | –

[1], x1 = 0.5
Conditions | viscosity [mPa·s]
298.15 K | 21.12
322.34 K | 8.316
353.83 K | 3.488
392.87 K | 1.641
436.08 K | 0.885
462.75 K | 0.671

OCCO [1,2-ethanediol]
mass density [kg/m3], [2]
Conditions | Buoyancy - hydrostatic balance | Pycnometric method
293.15 K | 1113.58 | 1113.58
312.46 K | 1100.88 | –
314.45 K | – | 1099.52
333.25 K | – | 1086.3
333.55 K | – | 1086.09
334.87 K | 1085.13 | –
349.24 K | 1074.46 | –
352.85 K | – | 1071.71
353.65 K | – | 1071.1
357.05 K | – | 1068.48
365.7 K | 1061.7 | –
367.25 K | – | 1060.47
380.82 K | 1049.47 | –
381.45 K | – | 1048.95
395.55 K | 1037.07 | –
411.65 K | – | 1023
421.7 K | 1013.93 | –
433.75 K | – | 1002.77
461.55 K | – | 975.83
464.4 K | 972.98 | –

[2]
Conditions | viscosity [mPa·s]
293.15 K | 21.1
312.46 K | 9.925
334.87 K | 4.949
349.24 K | 3.517
365.7 K | 2.39
380.82 K | 1.815
395.55 K | 1.419
421.7 K | 0.96
464.4 K | 0.652

OCCOCCOCCO [triethylene glycol] + OCCOCCO
mass density [kg/m3], [1]
Conditions | 298.15 K | 322.43 K | 355.15 K | 391.02 K | 432.13 K | 473.1 K
Buoyancy - hydrostatic balance, x2 = 0.5 | 1116.28 | 1104.5 | 1083.98 | 1055.33 | 1014.59 | 965.58
Pycnometric method, x1 = 0.5 | 1115.61 | – | – | – | – | –

[1], x1 = 0.5
Conditions | viscosity [mPa·s]
298.15 K | 32.4
322.43 K | 11.71
355.15 K | 4.468
391.02 K | 2.179
432.13 K | 1.172
473.1 K | 0.716

OCCOCCOCCO [triethylene glycol]
[2]
Conditions | mass density [kg/m3]
293.15 K, Pycnometric method | 1123.06
298.15 K, Buoyancy - hydrostatic balance | 1119.75
312.96 K, Buoyancy - hydrostatic balance | 1109.61
313.15 K, Pycnometric method | 1109.47
314.15 K, Pycnometric method | 1108.77
333.25 K, Pycnometric method | 1094.96
334.85 K, Pycnometric method | 1093.76
334.96 K, Buoyancy - hydrostatic balance | 1093.69
349.25 K, Buoyancy - hydrostatic balance | 1082.8
352.55 K, Pycnometric method | 1080.21
352.85 K, Pycnometric method | 1079.98
364.44 K, Buoyancy - hydrostatic balance | 1070.74
367.25 K, Pycnometric method | 1068.46
381.45 K, Pycnometric method | 1056.66
411.65 K, Pycnometric method | 1030.16
413.73 K, Buoyancy - hydrostatic balance | 1028.27
433.75 K, Pycnometric method | 1009.54
461.56 K, Pycnometric method | 982.12
462.25 K, Buoyancy - hydrostatic balance | 981.42
476.35 K, Pycnometric method | 966.87

[2]
Conditions | viscosity [mPa·s]
298.15 K | 36.82
312.96 K | 19.03
334.96 K | 9.002
349.25 K | 5.945
364.44 K | 4.131
413.73 K | 1.679
462.25 K | 0.997

OCCOCCOCCO [triethylene glycol] + OCCO
mass density [kg/m3], [1]
Conditions | 298.13 K | 298.15 K | 322.36 K | 355.34 K | 392.2 K | 434.59 K | 462.61 K
Buoyancy - hydrostatic balance, x2 = 0.5 | 1115.1 | – | 1101.75 | 1079 | 1047.37 | 1002.88 | 968.72
Pycnometric method, x1 = 0.5 | – | 1115.45 | – | – | – | – | –

[1], x1 = 0.5
Conditions | viscosity [mPa·s]
298.13 K | 26.24
322.36 K | 10.13
355.34 K | 3.999
392.2 K | 1.946
434.59 K | 1.058
462.61 K | 0.705

OCCOCCO [diethylene glycol]
mass density [kg/m3], [2]
Conditions | Buoyancy - hydrostatic balance | Pycnometric method
293.15 K | 1117.04 | 1117.04
298.15 K | 1114.02 | –
312.6 K | 1104.9 | –
313.15 K | – | 1104.54
314.15 K | – | 1103.88
329.28 K | 1093.62 | –
333.25 K | – | 1090.82
334.85 K | – | 1089.68
344.99 K | 1082.27 | –
349.77 K | 1078.67 | –
352.55 K | – | 1076.55
352.85 K | – | 1076.32
366.77 K | 1065.35 | –
367.25 K | – | 1064.96
381.65 K | – | 1053.01
411.05 K | – | 1026.74
413.65 K | 1024.3 | –
434.45 K | – | 1004.06
464.05 K | 973.11 | –

[2]
Conditions | viscosity [mPa·s]
293.15 K | 36.52
298.15 K | 28.36
312.6 K | 15.25
329.28 K | 8.458
344.99 K | 5.34
349.77 K | 4.809
366.77 K | 3.231
413.65 K | 1.409
464.05 K | 0.789
